Source: US5147876A, “2,6-di,2,4,6-, 2,5,6-tri and 2,4,5,6-tetra-substituted pyrimidines, their pharmaceutically acceptable salts, pharmaceutical compositions containing same and their use in the treatment of neurological diseases” (Mitsui Petrochemical Industries, Ltd., priority 1988, dated 1992)

What was measured:
Acute toxicity on mice = format: in vivo; conditions: mouse, in vivo, ip, 24 hours after administration; read-out: Estimated LD50
Experimental: The acute toxicity of the compounds of the invention was examined by the following method.
Male ddy-strain 5-week old mice, 4-6- per group, were used as experimental animals. Each of the compounds was intraperitoneally (i.p.), and the toxicity of the compound was assessed 24 hours after the administration.

[1] = test system: neuro-2a (mouse neuroblastoma cells); assay: Action on neuro-2a: proportion of cells containing outgrown neurites; format: cell-based; conditions: mean ± S.D.
Experimental: (§1) The effects of the compounds of this invention on neuroblastoma cells were examined by the following method.
(§2) Mouse neuro 2a cells in the logarithmic growth period in the Dulbecco's modified Eagle's medium DMEM, containing 100 units/ml of penicillin G sodium and 100 micrograms/ml of streptomycin sulfate]containing 10 % of FCS were seeded in a 48-well plate so that the number of cells was 1,000 cells/well, and cultured for one day in 0.25 ml of the culture fluid in each well in an incubator containing 5 % of carbon dioxide gas in air at 37° C. Then, a 4 % aqueous glutaraldehyde solution in the same amount as a medium (0.25 ml) was added, and the culture fluid was left to stand at room temperature for 2 hours to fix the cells. After washing with water, a 0.05 % aqueous solution of methylene blue was added to stain the cells Under a microscope, the number of cells containing outgrown neurites (cells having at least one neurite with a length of at least two times as large as the long diameter of the cell) was counted visually, and the proportion of these cells in the entire cells was calculated. The well was observed over 5 or more visual fields (at least 2 % of the entire surface area of the well) continuous to the left and right from a mark put at the center of the well, and more than 200 cells was counted. One drug compound was used in 6 different concentrations at most, and three runs were conducted for each concentrations.

[2] = test system: NS-20Y (mouse neuroblastoma cells); assay: Activity on NS-20Y cells: appearance of neurites; format: cell-based
Experimental: as §1, §2
Mouse neuroblastoma cells NS-20Y were similarly cultured in a dish coated with polyornithine, and the effects of the compounds were examined.

Structure (SMILES) | LD50 at 24 h (Acute toxicity on mice) [mg/kg] | Number of cells having neurites with a length at least two times the diameter of each cell/total number of cells ([1]; 0.03 mM) [%] | Number of cells having neurites with a length at least two times the diameter of each cell/total number of cells ([1]; 0.1 mM) [%] | Number of cells having neurites with a length at least two times the diameter of each cell/total number of cells ([1]; 0.3 mM) [%] | Number of cells having neurites with a length at least two times the diameter of each cell/total number of cells ([1]; 1 mM) [%] | further results
CN(C)c1nccc(N(C)C(=O)c2ccccc2)n1 [Compound 104] | 500 to 1000 | 2.5 ± 0.8 | 4.1 ± 1.5 | 7.7 ± 3.8 | 3.6 ± 1.4 | –
CC1CCCN(c2nccc(N(C)C(=O)c3ccccc3)n2)C1 (stereo not shown) [Compound 138] | > 1000 | 6.3 ± 1.8 | 12.6 ± 4.1 | – | – | –
CCCC1CCN(c2nccc(N(C)C(=O)c3ccccc3)n2)CC1 [Compound 146] | > 1000 | 8.7 ± 2.0 | 40.0 ± 6.1 | – | – | –
CC(C)C1CCN(c2nccc(N(C)C(=O)c3ccccc3)n2)CC1 [Compound 147-1] | > 1000 | 6.6 ± 0.4 | 30.5 ± 6.1 | – | – | –
CC1CCCCN1c1nccc(N(C)C(=O)c2ccccc2)n1 (stereo not shown) [Compound 154] | > 1000 | 5.2 ± 1.5 | 16.2 ± 2.1 | – | – | –
CCOc1ccc(C(=O)N(C)c2ccnc(N3CCC(c4ccccc4)CC3)n2)cc1 [Compound 171-5] | > 1000 | – | 28.4 ± 2.2 | 32.7 ± 0.6 | 14.0 ± 4.1 | Number of cells having neurites with a length at least two times the diameter of each cell/total number of cells ([1]; 0.01 mM): 7.2 ± 1.1%
CC(=O)N(C)c1ccnc(N2CCc3ccccc3C2)n1 [Compound 312] | > 1000 | 4.5 ± 0.4 | 9.7 ± 0.9 | – | – | –
CN1CCN(c2nccc(N(C)C(=O)c3ccccc3)n2)CC1 [Compound 352] | 500 to 1000 | – | 3.2 ± 1.9 | 9.9 ± 1.6 | – | –
Cc1cnc(N2CCCCC2)nc1N(C)C(=O)c1ccccc1 [Compound 408] | 500 to 1000 | – | 9.1 ± 1.8 | 9.6 ± 3.9 | – | –
CCCN(C(=O)c1ccccc1)c1nccc(N2CCC(c3ccccc3)CC2)n1 [Compound 644] | > 1000 | 26.1 ± 7.3 | 14.7 ± 7.3 | – | – | –
COCc1nc(N2CCCCC2)ncc1C(=O)OC [Compound 820, 2-piperidino-4-methoxymethyl-5-methoxycarbonylpyrimidine] | – | – | – | – | 8.4 ± 1.1 | Number of cells in which neurites appeared/total number of cells ([2]; 24 hours, 0.1 mM): 4/50; Number of cells in which neurites appeared/total number of cells ([2]; 24 hours, 0.5 mM): 5/53; Number of cells in which neurites appeared/total number of cells ([2]; 48 hours, 0.1 mM): 4/50; Number of cells in which neurites appeared/total number of cells ([2]; 48 hours, 0.25 mM): 5/55; Number of cells having neurites with a length at least two times the diameter of each cell/total number of cells ([1]; 3 mM): 8.8 ± 2.3%
CCOC(=O)c1cnc(NC(C)C)nc1CN(C)C [Compound 828] | – | – | – | 7.3 ± 1.6 | 6.1 ± 2.0 | Number of cells in which neurites appeared/total number of cells ([2]; 24 hours, 0.3 mM): 10/58; Number of cells in which neurites appeared/total number of cells ([2]; 24 hours, 0.5 mM): 5/59; Number of cells in which neurites appeared/total number of cells ([2]; 48 hours, 0.3 mM): 6/50; Number of cells in which neurites appeared/total number of cells ([2]; 48 hours, 0.5 mM): 5/51
CNc1ccnc(N2CCCCC2)n1 [Compound 1014] | – | – | 4.7 ± 0.7 | 7.6 ± 1.5 | – | Number of cells in which neurites appeared/total number of cells ([2]; 24 hours, 0.1 mM): 3/50; Number of cells in which neurites appeared/total number of cells ([2]; 24 hours, 0.4 mM): 9/50; Number of cells in which neurites appeared/total number of cells ([2]; 48 hours, 0.4 mM): 6/50
CNc1ccnc(N2CCC(c3ccccc3)CC2)n1.O=C(O)/C=C\C(=O)O [Compound 1026, 4-Methylamino-2-(4-phenylpiperidino)pyrimidine maleate] | – | 3.5 ± 0.5 | 5.6 ± 2.2 | – | – | Number of cells in which neurites appeared/total number of cells ([2]; 24 hours, 0.02 mM): 4/50; Number of cells in which neurites appeared/total number of cells ([2]; 24 hours, 0.1 mM): 31/50; Number of cells in which neurites appeared/total number of cells ([2]; 48 hours, 0.02 mM): 2/50
CNc1cc(C)nc(N2CCCCC2)n1 [Compound 1086] | – | 1.9 ± 1.8 | 3.1 ± 1.3 | 8.7 ± 0.8 | 17.4 ± 1.1 | Number of cells in which neurites appeared/total number of cells ([2]; 24 hours, 0.4 mM): 4/50; Number of cells in which neurites appeared/total number of cells ([2]; 48 hours, 0.02 mM): 2/50
CNc1nc(N2CCCCC2)ncc1C [Compound 1094] | – | – | 5.4 ± 1.9 | 16.9 ± 1.2 | 10.9 ± 1.1 | Number of cells in which neurites appeared/total number of cells ([2]; 24 hours, 0.1 mM): 4/54; Number of cells in which neurites appeared/total number of cells ([2]; 24 hours, 0.4 mM): 7/48; Number of cells in which neurites appeared/total number of cells ([2]; 48 hours, concentration printed "0. mM"): 2/50
CNc1nc(C)cc(N2CCC(c3ccccc3)CC2)n1 [Compound 1158] | < 250 | 9.9 ± 1.4 | 18.4 ± 3.0 | 22.1 ± 6.7 | 19.1 ± 2.7 | –
CC1CC(C)CN(c2nccc(N(C)C(=O)c3ccccc3)n2)C1 (stereo not shown) [Compound 2004] | > 1000 | 6.6 ± 2.2 | 30.2 ± 6.4 | – | – | –
CN(C(=O)c1ccccc1)c1ccnc(N2CCC(C)(C)CC2)n1 [Compound 2116] | 500 to 1000 | – | 34.2 ± 3.8 | 8.2 ± 3.6 | – | –
CN(C(=O)c1cccnc1)c1ccnc(N2CCC(c3ccccc3)CC2)n1 [Compound 2140] | > 1000 | 5.4 ± 3.9 | 17.0 ± 1.2 | – | – | –
CN(C(=O)c1ccccc1)c1ccnc(N2CCCC3CCCCC32)n1 (stereo not shown) [Compound 2156] | > 1000 | 8.6 ± 1.0 | 19.6 ± 5.3 | – | – | –
CN(C(=O)c1ccccc1)c1ccnc(N2CCC(CO)CC2)n1 [Compound 2164] | > 1000 | – | 4.6 ± 1.1 | – | 11.7 ± 0.7 | –
